Measurements as given in ChEMBL document CHEMBL5360559, “Machine learning- and structure-based discovery of a novel chemotype as FXR agonists for potential treatment of nonalcoholic fatty liver disease” (Eur J Med Chem, 2023).

Legend:
[1] = system: HepG2; experiment: Induction of dyslipidemia in human HepG2 cells assessed as downregulation of ApoC3 gene expression at 10 uM by qPCR analysis; format: toxicity, cell-based; conditions: hepg2, 10 µM
[2] = system: HepG2; experiment: Induction of dyslipidemia in human HepG2 cells assessed as downregulation of ApoA1 gene expression at 10 uM by qPCR analysis; format: toxicity, cell-based; conditions: hepg2, 10 µM

CC[C@H]1[C@@H](O)[C@@H]2[C@H](CC[C@]3(C)[C@@H]([C@H](C)CCC(=O)O)CC[C@@H]23)[C@@]2(C)CC[C@@H](O)C[C@@H]12 [OBETICHOLIC ACID]
Activity [1]: Toxic | Activity [2]: Toxic
